We go through 15 compounds from PubChem BioAssay (NCI).

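Following 48 hours of exposure in 96-well plates, responses at five concentrations were used to interpolate endpoints linearly. TGI denotes the concentration required for complete inhibition of growth.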

One assay has as its system SF-295 CNS. The assay can be described thus: NCI anticancer screen, dose series, 48 h.
As to `COC(=O)C(CC12CC3CC(CC(C3)C1)C2)NC(=O)C(N)CC(=O)O` (configuration not stated), the TGI was > 100 µM.

Turning to `Cc1nc2cccc(F)c2c(=O)n1C1CCCCNC1=O` (configuration not stated), the TGI was > 10 µM.

With `N=c1oc2cc(O)ccc2cc1C(=O)NCc1ccccc1`, the TGI is > 100 µM.

`C=CCOc1ccc(/C(N=Nc2ccc(Cl)cc2)=N/NC(=O)c2ccccc2)cc1OC`: the TGI is > 100 µM.

Turning to `COc1ccc(/C=C2\NC(=S)N(CN3CCCCC3)C2=O)cc1`, the TGI was > 100 µM.

In the case of `Cc1ccc(C2=Nc3cccc4cccc(c34)N2)cc1`, the TGI is > 100 µM.

On to `COC(=O)c1ccccc1CC1Cc2ccc3c(c2C1=O)CCC3` (configuration not stated), for which the TGI was > 100 µM.

In the case of `C[n+]1c2ccccc2c(C(=O)Nc2ccc(S(=O)(=O)Nc3ccnn3-c3ccccc3)cc2)c2ccccc21`, the TGI is > 100 µM.

For the next assay, the system named is SNB-75 CNS. The assay can be described thus: NCI anticancer screen, dose series, 48 h.
`O=C(/C=C/c1csc(-c2ccccc2)n1)NCc1ccc(C(=O)NCCc2ccccc2)cc1` returned a TGI of 8.31 µM.

For the compound `CC(=O)N1C(c2[nH]c3ccccc3c2-c2ccccc2)CCN1c1ccccc1` (configuration not stated), the TGI is > 10 µM.

`COc1cccc(-c2c(C#N)c(N)nc3c2CCS(=O)(=O)c2ccc(C)cc2-3)c1`: the TGI is > 100 µM.

On to `CC(=O)N1C(Nc2ccccn2)CCN1c1ccccc1` (configuration not stated), for which the TGI is > 10 µM.

On to `CCNCCNc1c2ccccc2nc2ccccc12`, for which the TGI stood at 3.52 µM.

On to `CCOP(=O)(OCC)C1CC(O)C(=O)N1` (configuration not stated), for which the TGI is > 100 µM.

`COC(=O)C(CC12CC3CC(CC(C3)C1)C2)NC(=O)C(N)CC(=O)O` (configuration not stated): the TGI was > 100 µM.

Turning to `Cc1nc2cccc(F)c2c(=O)n1C1CCCCNC1=O` (configuration not stated), the TGI is > 10 µM.

On to `N=c1oc2cc(O)ccc2cc1C(=O)NCc1ccccc1`, for which the TGI was determined as 43.8 µM.

For the compound `C=CCOc1ccc(/C(N=Nc2ccc(Cl)cc2)=N/NC(=O)c2ccccc2)cc1OC`, the TGI was > 100 µM.

The compound `COc1ccc(/C=C2\NC(=S)N(CN3CCCCC3)C2=O)cc1` yielded a TGI of 79 µM.

Take `Cc1ccc(C2=Nc3cccc4cccc(c34)N2)cc1`: the TGI was > 100 µM.

Consider `COC(=O)c1ccccc1CC1Cc2ccc3c(c2C1=O)CCC3` (configuration not stated), for which the TGI is 80.7 µM.

As to `C[n+]1c2ccccc2c(C(=O)Nc2ccc(S(=O)(=O)Nc3ccnn3-c3ccccc3)cc2)c2ccccc21`, the TGI is > 100 µM.

In a further assay the test system is HS 578T breast. The assay can be described thus: NCI anticancer screen, dose series, 48 h.
Turning to `O=C(/C=C/c1csc(-c2ccccc2)n1)NCc1ccc(C(=O)NCCc2ccccc2)cc1`, the TGI is > 100 µM.

Turning to `CC(=O)N1C(c2[nH]c3ccccc3c2-c2ccccc2)CCN1c1ccccc1` (configuration not stated), the TGI was > 10 µM.

`COc1cccc(-c2c(C#N)c(N)nc3c2CCS(=O)(=O)c2ccc(C)cc2-3)c1`: the TGI is > 100 µM.

Regarding `CC(=O)N1C(Nc2ccccn2)CCN1c1ccccc1` (configuration not stated), the TGI is > 10 µM.

With `CC12CCC(CC1=O)C2(C)CCC(N)=O` (configuration not stated), the TGI is > 100 µM.

Consider `CCNCCNc1c2ccccc2nc2ccccc12`, for which the TGI turned out to be 5.28 µM.

On to `CCOP(=O)(OCC)C1CC(O)C(=O)N1` (configuration not stated), for which the TGI is > 100 µM.

As to `COC(=O)C(CC12CC3CC(CC(C3)C1)C2)NC(=O)C(N)CC(=O)O` (configuration not stated), the TGI was > 100 µM.

For the compound `Cc1nc2cccc(F)c2c(=O)n1C1CCCCNC1=O` (configuration not stated), the TGI was > 10 µM.

`N=c1oc2cc(O)ccc2cc1C(=O)NCc1ccccc1` came in with a TGI of 45.4 µM.

With `C=CCOc1ccc(/C(N=Nc2ccc(Cl)cc2)=N/NC(=O)c2ccccc2)cc1OC`, the TGI is > 100 µM.

For `COc1ccc(/C=C2\NC(=S)N(CN3CCCCC3)C2=O)cc1`, the TGI amounted to 42 µM.

`Cc1ccc(C2=Nc3cccc4cccc(c34)N2)cc1`: the TGI is > 100 µM.

With `COC(=O)c1ccccc1CC1Cc2ccc3c(c2C1=O)CCC3` (configuration not stated), the TGI was > 100 µM.

As to `C[n+]1c2ccccc2c(C(=O)Nc2ccc(S(=O)(=O)Nc3ccnn3-c3ccccc3)cc2)c2ccccc21`, the TGI is > 100 µM.

The test system of a further assay is RPMI-8226 leukemia. The experiment in a line: NCI anticancer screen, dose series, 48 h.
Turning to `O=C(/C=C/c1csc(-c2ccccc2)n1)NCc1ccc(C(=O)NCCc2ccccc2)cc1`, the TGI is > 100 µM.

Regarding `CC(=O)N1C(c2[nH]c3ccccc3c2-c2ccccc2)CCN1c1ccccc1` (configuration not stated), the TGI is > 10 µM.

For `COc1cccc(-c2c(C#N)c(N)nc3c2CCS(=O)(=O)c2ccc(C)cc2-3)c1`, the TGI was > 100 µM.

Take `CC(=O)N1C(Nc2ccccn2)CCN1c1ccccc1` (configuration not stated): the TGI is > 10 µM.

Regarding `CC12CCC(CC1=O)C2(C)CCC(N)=O` (configuration not stated), the TGI was > 100 µM.

Turning to `CCOP(=O)(OCC)C1CC(O)C(=O)N1` (configuration not stated), the TGI is > 100 µM.

For `COC(=O)C(CC12CC3CC(CC(C3)C1)C2)NC(=O)C(N)CC(=O)O` (configuration not stated), the TGI is > 100 µM.

Turning to `Cc1nc2cccc(F)c2c(=O)n1C1CCCCNC1=O` (configuration not stated), the TGI is > 10 µM.

Take `N=c1oc2cc(O)ccc2cc1C(=O)NCc1ccccc1`: the TGI was 39.9 µM.

For the compound `COc1ccc(/C=C2\NC(=S)N(CN3CCCCC3)C2=O)cc1`, the TGI was > 100 µM.

`Cc1ccc(C2=Nc3cccc4cccc(c34)N2)cc1`: the TGI is > 100 µM.

As to `COC(=O)c1ccccc1CC1Cc2ccc3c(c2C1=O)CCC3` (configuration not stated), the TGI was > 100 µM.

With `C[n+]1c2ccccc2c(C(=O)Nc2ccc(S(=O)(=O)Nc3ccnn3-c3ccccc3)cc2)c2ccccc21`, the TGI is > 100 µM.

Another assay deals with OVCAR-5 ovarian. The assay can be described thus: NCI anticancer screen, dose series, 48 h.
For `O=C(/C=C/c1csc(-c2ccccc2)n1)NCc1ccc(C(=O)NCCc2ccccc2)cc1`, the TGI was > 100 µM.

Turning to `CC(=O)N1C(c2[nH]c3ccccc3c2-c2ccccc2)CCN1c1ccccc1` (configuration not stated), the TGI was > 10 µM.

As for `COc1cccc(-c2c(C#N)c(N)nc3c2CCS(=O)(=O)c2ccc(C)cc2-3)c1`, the TGI is > 100 µM.

As for `CC(=O)N1C(Nc2ccccn2)CCN1c1ccccc1` (configuration not stated), the TGI is > 10 µM.

Turning to `CC12CCC(CC1=O)C2(C)CCC(N)=O` (configuration not stated), the TGI was > 100 µM.

With `CCNCCNc1c2ccccc2nc2ccccc12`, the TGI worked out at 7.62 µM.

In the case of `CCOP(=O)(OCC)C1CC(O)C(=O)N1` (configuration not stated), the TGI is > 100 µM.

Turning to `COC(=O)C(CC12CC3CC(CC(C3)C1)C2)NC(=O)C(N)CC(=O)O` (configuration not stated), the TGI is > 100 µM.

For `Cc1nc2cccc(F)c2c(=O)n1C1CCCCNC1=O` (configuration not stated), the TGI is > 10 µM.

On to `N=c1oc2cc(O)ccc2cc1C(=O)NCc1ccccc1`, for which the TGI is > 100 µM.

Turning to `C=CCOc1ccc(/C(N=Nc2ccc(Cl)cc2)=N/NC(=O)c2ccccc2)cc1OC`, the TGI is > 100 µM.

Consider `COc1ccc(/C=C2\NC(=S)N(CN3CCCCC3)C2=O)cc1`, for which the TGI was > 100 µM.

In the case of `COC(=O)c1ccccc1CC1Cc2ccc3c(c2C1=O)CCC3` (configuration not stated), the TGI is > 100 µM.

With `C[n+]1c2ccccc2c(C(=O)Nc2ccc(S(=O)(=O)Nc3ccnn3-c3ccccc3)cc2)c2ccccc21`, the TGI is > 100 µM.

In a further assay the test system is MOLT-4 leukemia. The experiment in a line: NCI anticancer screen, dose series, 48 h.
In the case of `O=C(/C=C/c1csc(-c2ccccc2)n1)NCc1ccc(C(=O)NCCc2ccccc2)cc1`, the TGI is > 100 µM.

As to `CC(=O)N1C(c2[nH]c3ccccc3c2-c2ccccc2)CCN1c1ccccc1` (configuration not stated), the TGI is > 10 µM.

For the compound `CC(=O)N1C(Nc2ccccn2)CCN1c1ccccc1` (configuration not stated), the TGI is > 10 µM.
